From paper PMC9320964, “Improving the Therapeutic Index of Smp24, a Venom-Derived Antimicrobial Peptide: Increased Activity against Gram-Negative Bacteria” (International Journal of Molecular Sciences, 2022)
Converted amounts (≈) assume the structure as drawn. Marks after values point to notes of the source that are not given here. Residues, ends and D or L forms follow the SMILES beside them. No end group written: not given here.

Assays:
Assay type in all cases: cell-based
Escherichia coli JM109 [1] = experiment: MIC by broth microdilution; conditions: Muller Hinton broth, turbidity A600 nm
Description: (§1) The bacterial isolates used in this study (Escherichia coli JM109, Staphylococcus aureus SH1000 and Pseudomonas aeruginosa H085180216) were obtained from the culture collection held at Sheffield Hallam University.
(§2) All antimicrobial assays were performed by a broth microdilution method in Muller Hinton (MH) broth using a CLARIOstar plate reader (BMG Labtech, Offenburg, Germany) to determine the minimum inhibitory concentration (MIC). The MIC was defined as the lowest concentration of antimicrobial peptide at which growth was inhibited when viewed as turbidity (A600 nm) against a negative broth control. To determine the minimum bactericidal concentration (MBC), 5 µL aliquots were taken from the wells of the MIC plate and spot-plated onto MH agar in triplicate. The plates were incubated for 18–24 h at 37 °C.

[2] = tested on: Pseudomonas aeruginosa H085180216; experiment: MIC by broth microdilution; conditions: Muller Hinton broth, turbidity A600 nm
Description: as §1, §2

[3] = tested on: Staphylococcus aureus SH1000; experiment: MIC by broth microdilution; conditions: Muller Hinton broth, turbidity A600 nm
Description: as §1, §2

Escherichia coli JM109 [4] = experiment: MBC by spot-plating from MIC plate; conditions: 5 µL aliquots of MIC plate spot-plated onto MH agar in triplicate, 18–24 h at 37 °C
Description: as §1, §2

[5] = tested on: Pseudomonas aeruginosa H085180216; experiment: MBC by spot-plating from MIC plate; conditions: 5 µL aliquots of MIC plate spot-plated onto MH agar in triplicate, 18–24 h at 37 °C
Description: as §1, §2

[6] = tested on: Staphylococcus aureus SH1000; experiment: MBC by spot-plating from MIC plate; conditions: 5 µL aliquots of MIC plate spot-plated onto MH agar in triplicate, 18–24 h at 37 °C
Description: as §1, §2

sheep erythrocytes = experiment: Haemolysis assay; conditions: peptides 0–512 µg/mL, triplicate, 10% Triton X-100 positive control
Description: Haemolytic activity was determined on sheep erythrocytes as described by Corzo, 2001 [23]. All samples were tested in triplicate and results given as HC50 values. Peptides were examined in the range of 0–512 µg/mL. 10% Triton X-100 was used as a positive control and deionised water with PBS as a negative control.

HEK293 cells = experiment: LDH cytotoxicity assay; conditions: LDH release, human kidney HEK293 cells, 0–512 µg/mL, 24 h, 37 °C, triplicate on 2 separate occasions
Description: (§3) An LDH assay (Fisher, Loughborough, UK) was used to determine the cytotoxic potential of the peptides against liver (HepG2) and kidney (HEK293) cells. Cells were grown in accordance with the manufacturer’s protocols. Cells were grown in DMEM containing 1 g/L D-glucose, 10% foetal bovine serum and 1% penicillin-streptomycin. Cells were grown to 80% confluence (37 °C, 5% CO2), washed twice with PBS, trypsinised, re-suspended and seeded at a density of […] in a 96-well plate. Cells were incubated for 24 h, and peptides or lipopeptide antibiotics (0–512 µg/mL) were added and incubated at 37 °C, 5% CO2 for 24 h. LDH release was determined via the manufacturer’s methods. All assays were performed in triplicate on 2 separate occasions. Triton X-100 (10%) was used as a positive control and deionised water as a negative control. Absorbance was read at 490 nm and 680 nm on a plate reader (CLARIOstar). LD50 values were calculated by plotting a dose–response curve and determining the dosage that would cause 50% cell death.

HepG2 cells = experiment: LDH cytotoxicity assay; conditions: LDH release, human liver HepG2 cells, 0–512 µg/mL, 24 h, 37 °C, triplicate on 2 separate occasions
Description: as §3

| Compound | MIC E. coli (Escherichia coli JM109 [1]) [µg/mL] | MIC P. aeruginosa [2] [µg/mL] | MIC S. aureus [3] [µg/mL] | MBC E. coli (Escherichia coli JM109 [4]) [µg/mL] | MBC P. aeruginosa [5] [µg/mL] | MBC S. aureus [6] [µg/mL] | HC50 (sheep erythrocytes) | HC50 (sheep erythrocytes; listed as daptomycin) [µg/mL] | LD50 HEK293 (HEK293 cells) [µg/mL] | LD50 HepG2 (HepG2 cells) | HC50 (sheep erythrocytes; listed as polymyxin B) [µg/mL] | HC50 (sheep erythrocytes; listed as W2A) [µg/mL] | HC50 (sheep erythrocytes; listed as F4A) [µg/mL] | HC50 (sheep erythrocytes; listed as K7F) [µg/mL] |
| --- | --- | --- | --- | --- | --- | --- | --- | --- | --- | --- | --- | --- | --- | --- |
| CCCCCCCCCC(=O)N[C@@H](Cc1c[nH]c2ccccc12)C(=O)N[C@H](CC(N)=O)C(=O)N[C@@H](CC(=O)O)C(=O)N[C@@H]1C(=O)NCC(=O)N[C@@H](CCCN)C(=O)N[C@@H](CC(=O)O)C(=O)N[C@H](C)C(=O)N[C@@H](CC(=O)O)C(=O)NCC(=O)N[C@H](CO)C(=O)N[C@@H]([C@H](C)CC(=O)O)C(=O)N[C@@H](CC(=O)c2ccccc2N)C(=O)O[C@@H]1C [Daptomycin] | >512 | >512 | 4 (≈ 2.47 µM) | >512 | >512 | 8 (≈ 4.94 µM) | >512 µg/mL | ≥ 512 | >512 | >512 µg/mL | – | – | – | – |
| CC[C@H](C)CCCCC(=O)N[C@@H](CCN)C(=O)N[C@H](C(=O)N[C@@H](CCN)C(=O)N[C@H]1CCNC(=O)[C@H]([C@@H](C)O)NC(=O)[C@H](CCN)NC(=O)[C@H](CCN)NC(=O)[C@H](CC(C)C)NC(=O)[C@@H](Cc2ccccc2)NC(=O)[C@H](CCN)NC1=O)[C@@H](C)O [Polymyxin B] (HELM PEPTIDE1{[CC[C@H](C)CCCCC(=O)[*:2]].[Dab].T.[Dab].[Dab].[Dab].[dF].L.[Dab].[Dab].T}$PEPTIDE1,PEPTIDE1,5:R3-11:R2$$$V2.0; N-terminus assumed; bridges inferred) | 2 (≈ 1.66 µM) | 2 (≈ 1.66 µM) | 32 (≈ 26.6 µM) | 4 (≈ 3.32 µM) | 8 (≈ 6.65 µM) | 64 (≈ 53.2 µM) | >512 µg/mL | – | 351 | >512 µg/mL | ≥ 512 | – | – | – |
| IASFLIKAATKLLPSLFGGGKKDS [Smp24 W2A] | – | – | – | – | – | – | – | – | – | – | – | > 512 | – | – |
| IWSALIKAATKLLPSLFGGGKKDS [Smp24 F4A] | – | – | – | – | – | – | – | – | – | – | – | – | 423 | – |
| IWSFLIFAATKLLPSLFGGGKKDS [Smp24 K7F] | – | – | – | – | – | – | – | – | – | – | – | – | – | 442 |
| IWSFLIKAATKLLPSLFGGGKKFS [Smp24 D23F] | 32 | 64 | 32 | 32 | 64 | 32 | 33 * μg/mL | – | 38 | >512 * μg/mL | – | – | – | – |
